How the values were obtained:
Pyricularia oryzae = test: microbe, parasite or virus in culture; assay type: cell-based; conditions: 168 h, read-out: control compared to the untreated check (radial growth)
Rhizoctonia solani = Rhizoctonia solani (rice sheath blight/potato black scurf) in vitro test, radial growth on potato dextrose agar; assay type: cell-based; conditions: 168 h, 300 ppm in potato dextrose agar, 25° C., 60% relative humidity, seven days, read-out: control compared to the untreated check (radial growth)
Alternaria solani = Alternaria solani (early blight of tomato/potato) in vitro test, radial growth on potato dextrose agar; assay type: cell-based; conditions: 168 h, 300 ppm in potato dextrose agar, 25° C., 60% relative humidity, seven days, read-out: control compared to the untreated check (radial growth)
[1] = system: Septoria lycopersici/Corynespora cassicola (CORYCA); test: Septoria lycopersici/Corynespora cassicola (CORYCA) (leaf spot of tomato) in vitro test, radial growth on potato dextrose agar; assay type: cell-based; conditions: 168 h, 300 ppm in potato dextrose agar, 25° C., 70% relative humidity, seven days, read-out: control compared to the untreated check (radial growth)
Botrytis cinerea = Botrytis cinerea (gray mold) in vitro test, radial growth on potato dextrose agar; assay type: cell-based; conditions: 168 h, 300 ppm in potato dextrose agar, 22° C., 90% relative humidity, seven days, read-out: control compared to the untreated check (radial growth)
Phakopsora pachyrhizi = Phakopsora pachyrhizi test in soybean, preventive, in vivo on plants; conditions: in Glycine max, read-out: Efficacy (% control), disease severity compared to the untreated check

CCN(C)C=Nc1cc(Cl)cc(Nc2ccccc2F)c1C [Compound 165, N′-(5-chloro-3-((2-fluorophenyl)amino)-2-methylphenyl)-N-ethyl-N-methylformimidamide]
≥ 70%: inhibition of growth at 300 ppm (Pyricularia oryzae) | inhibition of growth at 300 ppm (Rhizoctonia solani) | inhibition of growth at 300 ppm (Alternaria solani) | inhibition of growth at 300 ppm [1]

CCN(C)C=Nc1cc(C)cc(Cc2cc(F)ccc2C)c1Cl [Compound 57, N′-(2-chloro-3-(5-fluoro-2-methylbenzyl)-5-methylphenyl)-N-ethyl-N-methylformimidamide]
≥ 70%: inhibition of growth at 300 ppm (Pyricularia oryzae) | inhibition of growth at 300 ppm (Botrytis cinerea) | inhibition of growth at 300 ppm (Alternaria solani) | pest or weed control at 500 ppm (Phakopsora pachyrhizi)

CCN(C)C=Nc1cc(F)cc(Cc2ccc(C#N)cc2)c1C [Compound 202, N′-(3-(4-cyanobenzyl)-5-fluoro-2-methylphenyl)-N-ethyl-N-methylformimidamide]
≥ 70%: inhibition of growth at 300 ppm (Pyricularia oryzae) | inhibition of growth at 300 ppm (Rhizoctonia solani) | inhibition of growth at 300 ppm (Botrytis cinerea) | inhibition of growth at 300 ppm (Alternaria solani) | pest or weed control at 500 ppm (Phakopsora pachyrhizi)

CCN(C)C=Nc1cc(C)cc(Nc2ccc(Cl)cc2F)c1Cl [Compound 134, N′-(2-chloro-3-((4-chloro-2-fluorophenyl)amino)-5-methylphenyl)-N-ethyl-N-methylformimidamide]
≥ 70%: inhibition of growth at 300 ppm (Pyricularia oryzae) | inhibition of growth at 300 ppm (Rhizoctonia solani) | inhibition of growth at 300 ppm (Botrytis cinerea) | pest or weed control at 500 ppm (Phakopsora pachyrhizi)

CCN(C)C=Nc1cc(F)cc(Cc2ccc(Br)c(C)c2)c1C [Compound 232, N′-(3-(4-bromo-3-methylbenzyl)-5-fluoro-2-methylphenyl)-N-ethyl-N-methylformimidamide]
≥ 70%: inhibition of growth at 300 ppm (Pyricularia oryzae) | inhibition of growth at 300 ppm (Rhizoctonia solani) | inhibition of growth at 300 ppm (Botrytis cinerea) | inhibition of growth at 300 ppm (Alternaria solani) | pest or weed control at 500 ppm (Phakopsora pachyrhizi)

CCN(C)C=Nc1cc(F)cc(Nc2c(C)cccc2F)c1C [Compound 121, N-ethyl-N′-(5-fluoro-3-((2-fluoro-6-methylphenyl)amino)-2-methylphenyl)-N-methylformimidamide]
≥ 70%: inhibition of growth at 300 ppm (Pyricularia oryzae) | inhibition of growth at 300 ppm (Alternaria solani) | inhibition of growth at 300 ppm [1] | pest or weed control at 500 ppm (Phakopsora pachyrhizi)

CCN(C)C=Nc1cc(C)cc(N(C)c2c(C)cccc2F)c1Cl [Compound 138, N′-(2-chloro-3-((2-fluoro-6-methylphenyl)(methyl)amino)-5-methylphenyl)-N-ethyl-N-methylformimidamide]
≥ 70%: inhibition of growth at 300 ppm (Pyricularia oryzae) | inhibition of growth at 300 ppm (Rhizoctonia solani) | inhibition of growth at 300 ppm (Alternaria solani) | inhibition of growth at 300 ppm [1]

CCN(C)C=Nc1cc(F)cc(N(C)c2cccc(C(F)(F)F)n2)c1C [Compound 291, N-ethyl-N′-(5-fluoro-2-methyl-3-(methyl(6-(trifluoromethyl)pyridin-2-yl)amino)phenyl)-N-methylformimidamide]
≥ 70%: inhibition of growth at 300 ppm (Pyricularia oryzae) | inhibition of growth at 300 ppm (Alternaria solani) | inhibition of growth at 300 ppm [1]

CCN(C)C=Nc1cc(Cl)cc(N(C)c2cccc(C)c2)c1C [Compound 160, N′-(5-chloro-2-methyl-3-(methyl(m-tolyl)amino)phenyl)-N-ethyl-N-methylformimidamide]
≥ 70%: inhibition of growth at 300 ppm (Pyricularia oryzae) | inhibition of growth at 300 ppm (Botrytis cinerea) | inhibition of growth at 300 ppm (Alternaria solani) | pest or weed control at 500 ppm (Phakopsora pachyrhizi)

CCN(C)C=Nc1cc(F)cc(Cc2cc(F)ccc2Cl)c1C [Compound 229, N′-(3-(2-chloro-5-fluorobenzyl)-5-fluoro-2-methylphenyl)-N-ethyl-N-methylformimidamide]
≥ 70%: inhibition of growth at 300 ppm (Pyricularia oryzae) | inhibition of growth at 300 ppm (Rhizoctonia solani) | inhibition of growth at 300 ppm (Botrytis cinerea) | inhibition of growth at 300 ppm (Alternaria solani) | pest or weed control at 500 ppm (Phakopsora pachyrhizi)

CCc1cccc(Nc2cc(Cl)cc(N=CN(C)CC)c2C)n1 [Compound 243, N′-(5-chloro-3-((6-ethylpyridin-2-yl)amino)-2-methylphenyl)-N-ethyl-N-methylformimidamide]
≥ 70%: inhibition of growth at 300 ppm (Pyricularia oryzae) | inhibition of growth at 300 ppm (Rhizoctonia solani) | inhibition of growth at 300 ppm (Alternaria solani) | inhibition of growth at 300 ppm [1]

CCN(C)C=Nc1cc(F)cc(Cc2ccc(F)cc2Br)c1C [Compound 230, N′-(3-(2-bromo-4-fluorobenzyl)-5-fluoro-2-methylphenyl)-N-ethyl-N-methylformimidamide]
≥ 70%: inhibition of growth at 300 ppm (Pyricularia oryzae) | inhibition of growth at 300 ppm (Rhizoctonia solani) | inhibition of growth at 300 ppm (Botrytis cinerea) | inhibition of growth at 300 ppm (Alternaria solani) | pest or weed control at 500 ppm (Phakopsora pachyrhizi)

CCN(C)C=Nc1cc(Cl)cc(Nc2ccccc2C)c1C [Compound 185, N′-(5-chloro-2-methyl-3-(o-tolylamino)phenyl)-N-ethyl-N-methylformimidamide]
≥ 70%: inhibition of growth at 300 ppm (Pyricularia oryzae) | inhibition of growth at 300 ppm (Rhizoctonia solani) | inhibition of growth at 300 ppm (Botrytis cinerea) | inhibition of growth at 300 ppm (Alternaria solani) | pest or weed control at 500 ppm (Phakopsora pachyrhizi)

CCN(C)C=Nc1cc(F)cc(Cc2cc(F)ccc2C)c1C [Compound 231, N-ethyl-N′-(5-fluoro-3-(5-fluoro-2-methylbenzyl)-2-methylphenyl)-N-methylformimidamide]
≥ 70%: inhibition of growth at 300 ppm (Pyricularia oryzae) | inhibition of growth at 300 ppm (Rhizoctonia solani) | inhibition of growth at 300 ppm (Botrytis cinerea) | inhibition of growth at 300 ppm (Alternaria solani) | pest or weed control at 500 ppm (Phakopsora pachyrhizi)

CCN(C)C=Nc1cc(C)cc(Nc2cccc(OC)c2)c1Cl [Compound 42, N′-(2-chloro-3-((3-methoxyphenyl)amino)-5-methylphenyl)-N-ethyl-N-methylformimidamide]
≥ 70%: inhibition of growth at 300 ppm (Pyricularia oryzae) | inhibition of growth at 300 ppm (Rhizoctonia solani) | inhibition of growth at 300 ppm (Botrytis cinerea) | inhibition of growth at 300 ppm (Alternaria solani) | pest or weed control at 500 ppm (Phakopsora pachyrhizi)

CCN(C)C=Nc1cc(F)cc(N(C)c2ccc(F)cc2F)c1C [Compound 80, N′-(3-((2,4-difluorophenyl)(methyl)amino)-5-fluoro-2-methylphenyl)-N-ethyl-N-methylformimidamide]
≥ 70%: inhibition of growth at 300 ppm (Pyricularia oryzae) | inhibition of growth at 300 ppm (Rhizoctonia solani) | inhibition of growth at 300 ppm (Botrytis cinerea) | inhibition of growth at 300 ppm (Alternaria solani) | pest or weed control at 500 ppm (Phakopsora pachyrhizi)

CCN(C)C=Nc1cc(F)cc(NCc2ccc(F)c(C)c2)c1C [Compound 182, N-ethyl-N′-(5-fluoro-3-((4-fluoro-3-methylbenzyl)amino)-2-methylphenyl)-N-methylformimidamide]
≥ 70%: inhibition of growth at 300 ppm (Pyricularia oryzae) | inhibition of growth at 300 ppm (Rhizoctonia solani) | inhibition of growth at 300 ppm (Botrytis cinerea) | inhibition of growth at 300 ppm (Alternaria solani) | pest or weed control at 500 ppm (Phakopsora pachyrhizi)

CCN(C)C=Nc1cc(Cl)cc(N(C)c2cccc(F)c2)c1C [Compound 179, N′-(5-chloro-3-((3-fluorophenyl)(methyl)amino)-2-methylphenyl)-N-ethyl-N-methylformimidamide]
≥ 70%: inhibition of growth at 300 ppm (Pyricularia oryzae) | inhibition of growth at 300 ppm (Botrytis cinerea) | inhibition of growth at 300 ppm (Alternaria solani) | pest or weed control at 500 ppm (Phakopsora pachyrhizi)

CCN(C)C=Nc1cc(C)cc(Nc2ccccc2F)c1C [Compound 6, N-ethyl-N′-(3-((2-fluorophenyl)amino)-2,5-dimethylphenyl)-N-methylformimidamide]
≥ 70%: inhibition of growth at 300 ppm (Pyricularia oryzae) | inhibition of growth at 300 ppm (Rhizoctonia solani) | inhibition of growth at 300 ppm (Alternaria solani) | inhibition of growth at 300 ppm [1]

CCN(C)C=Nc1cc(OC)cc(Nc2cccc(C(F)(F)F)n2)c1C [Compound 272, N-ethyl-N′-(5-methoxy-2-methyl-3-((6-(trifluoromethyl)pyridin-2-yl)amino)phenyl)-N-methylformimidamide]
≥ 70%: inhibition of growth at 300 ppm (Pyricularia oryzae) | inhibition of growth at 300 ppm (Alternaria solani) | inhibition of growth at 300 ppm [1]

CCN(C)C=Nc1cc(F)cc(N(C)c2cccc(F)c2)c1C [Compound 32, N-ethyl-N′-(5-fluoro-3-((3-fluorophenyl)(methyl)amino)-2-methylphenyl)-N-methylformimidamide]
≥ 70%: inhibition of growth at 300 ppm (Pyricularia oryzae) | inhibition of growth at 300 ppm (Botrytis cinerea) | inhibition of growth at 300 ppm (Alternaria solani) | pest or weed control at 500 ppm (Phakopsora pachyrhizi)

CCN(C)C=Nc1cc(F)cc(N(C)c2cccc(Cl)c2)c1C [Compound 33, N′-(3-((3-chlorophenyl)(methyl)amino)-5-fluoro-2-methylphenyl)-N-ethyl-N-methylformimidamide]
≥ 70%: inhibition of growth at 300 ppm (Pyricularia oryzae) | inhibition of growth at 300 ppm (Botrytis cinerea) | inhibition of growth at 300 ppm (Alternaria solani) | pest or weed control at 500 ppm (Phakopsora pachyrhizi)
